Laboratory results as given in patent publication US4738970A, “Benzimidazolyl-thio-tetrahydroquinolines and anti-peptic ulcer compositions containing the same” (Otsuka Pharmaceutical Co., Ltd., priority 1984, dated 1988).

Molecular target: T1, H^+ -K^+ -ATPase (Sus scrofa, UniProt P19156)
T1 construct: which was prepared from the stomach of swine; from tissue; host or cells: stomach of swine
Assay: Inhibitory Effect Test for the Activity of H^+ -K^+ -ATPase
Assay type: biochemical
Conditions: H+-K+-ATPase from the stomach of swine; preincubation pH 6.1, room temperature 30 min; reaction pH 7.4, 37° C. 30 min; read-out: IC50 (50% inhibition dosage)
Method: H^+ -K^+ -ATPase (hydrogen-potassium-activated adenosine triphosphatase) (protein content: 10 mcg) which was prepared from the stomach of swine was added to PIPES-tris[buffer PIPES-tris(hydroxymethyl)-2-amino-1,3-propanediol buffer (pH=6.1) containing 2 mM of piperazine-N,N'-bis(2-ethanesulfonic acid)], then the resulting mixture was let allowed to stand at room temperature.
Each of the test compounds was dissolved in dimethylformamide, and the dimethylformamide solution was added to the above-mentioned H^+ -K^+ -ATPase buffer solution so as to adjust the final concentration of the test compound to 1.0%. Each of thus prepared mixture was reacted at room temperature for 30 minutes.
Next, the above-mentioned reaction mixture was divided into two portions, and to the one portion thereof was added 1 ml of 75 mM PIPES-tris buffer solution (pH=7.4) (containing 4 mM of MgCl2, 4 mM of Na2 ATP and 20 mM of KCl), on the other hand, to another portion of the reaction mixture was added 1 ml of 75 mM PIPES-tris buffer solution (pH=7.4) (containing 4 mM of MgCl2 and 4 mM of Na2 ATP), respectively. Each of these two series of sample solutions was separately reacted at 37° C. for 30 minutes. Then to each of these reaction mixtures was added 0.3 ml of 40% trichloroacetic acid to terminate the reaction, and was subjected to centrifugal separation at 3,000 rpm for 10 minutes to obtain the supernatent. Next, the inorganic phosphoric acid formed in the reaction mixture was determined by a method according to the article by C. H. Fiske and Y. Subbarow: J. Biol. Chem., Vol. 66, pages 375-400, (1925). The difference of the value obtained by substracting the quantity of inorganic phosphoric acid determined by using PIPES-tris buffer solution without containing 20 mM of KCl from the quantity of inorganic phosphoric acid determined by using PIPES-tris buffer solution containing 20 mM of KCl, was converted into as activity value of enzyme with respect to the unit protein and unit time.
Inhibitory rate (%) of each of the test compounds was obtained from the activity value of the enzyme at the respective dosages in the test groups and those of obtained from the control group, then IC50 (50% inhibition dosage of each of the test compounds) was calculated from the inhibitory rate (%).

T1 sequence (P19156 2-1034 limits assumed): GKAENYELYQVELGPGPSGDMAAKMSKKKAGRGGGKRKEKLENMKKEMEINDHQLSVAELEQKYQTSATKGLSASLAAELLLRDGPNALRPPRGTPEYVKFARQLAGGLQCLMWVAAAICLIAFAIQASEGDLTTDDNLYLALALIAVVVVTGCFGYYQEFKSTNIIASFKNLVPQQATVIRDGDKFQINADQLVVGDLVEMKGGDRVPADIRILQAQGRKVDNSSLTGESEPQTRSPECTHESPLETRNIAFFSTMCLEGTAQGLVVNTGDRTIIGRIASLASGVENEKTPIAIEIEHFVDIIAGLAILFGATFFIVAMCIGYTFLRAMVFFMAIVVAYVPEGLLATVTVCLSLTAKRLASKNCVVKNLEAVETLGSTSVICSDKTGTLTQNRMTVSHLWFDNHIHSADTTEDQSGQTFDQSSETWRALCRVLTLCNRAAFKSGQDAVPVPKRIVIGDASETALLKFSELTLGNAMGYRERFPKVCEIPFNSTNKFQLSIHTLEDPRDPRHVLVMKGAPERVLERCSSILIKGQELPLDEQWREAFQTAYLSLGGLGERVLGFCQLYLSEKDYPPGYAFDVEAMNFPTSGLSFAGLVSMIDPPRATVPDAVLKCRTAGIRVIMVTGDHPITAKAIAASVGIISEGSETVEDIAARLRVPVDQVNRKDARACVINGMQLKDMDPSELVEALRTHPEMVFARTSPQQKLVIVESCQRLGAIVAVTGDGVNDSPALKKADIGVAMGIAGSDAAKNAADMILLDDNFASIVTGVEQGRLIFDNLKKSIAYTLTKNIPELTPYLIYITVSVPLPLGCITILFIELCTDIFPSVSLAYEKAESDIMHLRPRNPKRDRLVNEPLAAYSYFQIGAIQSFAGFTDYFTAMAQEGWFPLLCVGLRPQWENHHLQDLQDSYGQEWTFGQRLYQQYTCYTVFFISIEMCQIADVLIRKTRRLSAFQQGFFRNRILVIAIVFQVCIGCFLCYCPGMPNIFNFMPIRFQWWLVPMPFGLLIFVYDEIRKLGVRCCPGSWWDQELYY
T1 sequence (P18434 whole entry partner): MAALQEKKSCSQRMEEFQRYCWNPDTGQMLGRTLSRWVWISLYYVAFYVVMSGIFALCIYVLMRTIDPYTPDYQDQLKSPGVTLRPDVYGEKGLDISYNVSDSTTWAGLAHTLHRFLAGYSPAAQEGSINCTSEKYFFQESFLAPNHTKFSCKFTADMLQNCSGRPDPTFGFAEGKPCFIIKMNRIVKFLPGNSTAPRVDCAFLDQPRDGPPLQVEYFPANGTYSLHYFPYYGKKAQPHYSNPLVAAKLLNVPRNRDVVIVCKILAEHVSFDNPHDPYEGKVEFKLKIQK

Which IC50 does the source give for `COc1c(C)cnc2c1CCCC2[S+]([O-])c1nc2ccccc2[nH]1` (stereo not shown) [Test compound 35, 3-Methyl-4-methoxy-8-(2-benzimidazolyl)-sulfinyl-5,6,7,8-tetrahydroquinoline] here?
Its IC50 is 250 nM.

`COc1ccc2nc([S+]([O-])C3CCCc4cc(C)c(Cl)nc43)[nH]c2c1` (stereo not shown) [Test compound 22, 2-Chloro-3-methyl-8-(5-methoxy-2-benzimidazolyl)sulfinyl-5,6,7,8-tetrahydroquinoline] was tested. Which IC50 did it give?
Its IC50 is 2100 nM.

For `[O-][S+](c1nc2cc(Cl)c(Cl)cc2[nH]1)C1CCCc2cccnc21` (stereo not shown) [Test compound 36, 8-(5,6-Dichloro-2-benzimidazolyl)sulfinyl-5,6,7,8-tetrahydroquinoline], which IC50 is on record?
Its IC50 is 700 nM.

With `COCCOc1c(C)cnc2c1CCCC2[S+]([O-])c1nc2ccccc2[nH]1` (stereo not shown) [Test compound 9, 8-(2-Benzimidazolyl)sulfinyl-4-(2-methoxyethoxy)-3-methyl-5,6,7,8-tetrahydroquinoline] as the compound, how does the IC50 read?
Its IC50 is 840 nM.

With `COc1ccc2nc([S+]([O-])C3CCCc4ccc(C)nc43)[nH]c2c1` (stereo not shown) [Test compound 14, 2-Methyl-8-(5-methoxy-2-benzimidazolyl)-sulfinyl-5,6,7,8-tetrahydroquinoline] as the compound, how does the IC50 read?
The IC50 was 1500 nM.

`C#CCOc1c(C)cnc2c1CCCC2[S+]([O-])c1nc2cc(Cl)c(Cl)cc2[nH]1` (stereo not shown) [Test compound 8, 8-(5,6-Dichloro-2-benzimidazolyl)sulfinyl-3-methyl-4-propargyloxy-5,6,7,8-tetrahydroquinoline] was tested. Which IC50 did it give?
Its IC50 is 290 nM.

For `C#CCOc1c(C)cnc2c1CCCC2[S+]([O-])c1nc2ccc(F)cc2[nH]1` (stereo not shown) [Test compound 3, 8-(5-Fluoro-2-benzimidazolyl)sulfinyl-3-methyl-4-propargyloxy-5,6,7,8-tetrahydroquinoline], which IC50 is on record?
The IC50 was 1100 nM.

How did the IC50 turn out when `Cc1cnc2c(c1)CCCC2[S+]([O-])c1nc2cc(Cl)c(Cl)cc2[nH]1` (stereo not shown) [Test compound 52, 3-Methyl-8-(5,6-dichloro-2-benzimidazolyl)-sulfinyl-5,6,7,8-tetrahydroquinoline] was run?
Its IC50 is 230 nM.

Which IC50 does the source give for `COc1cc2nc([S+]([O-])C3CCCc4cc(C)cnc43)[nH]c2cc1OC` (stereo not shown) [Test compound 19, 3-Methyl-8-(5,6-dimethoxy-2-benzimidazolyl)-sulfinyl-5,6,7,8-tetrahydroquinoline] here?
The IC50 was 3100 nM.

Which IC50 does the source give for `COc1c(C)cnc2c1CCCC2[S+]([O-])c1nc2cc(C)c(C)cc2[nH]1` (stereo not shown) [Test compound 38, 3-Methyl-4-methoxy-8-(5,6-dimethyl-2-benzimidazolyl)sulfinyl-5,6,7,8-tetrahydroquinoline] here?
Its IC50 is 340 nM.

Which IC50 does the source give for `COc1ccc2nc([S+]([O-])C3CCCc4cccnc43)[nH]c2c1` (stereo not shown) [Test compound 23, 8-(5-Methoxy-2-benzimidazolyl)sulfinyl-5,6,7,8-tetrahydroquinoline] here?
Its IC50 is 1900 nM.

For `Cc1cnc2c(c1)CCCC2[S+]([O-])c1nc2ccc(C)cc2[nH]1` (stereo not shown) [Test compound 16, 3-Methyl-8-(5-methyl-2-benzimidazolyl)-sulfinyl-5,6,7,8-tetrahydroquinolin], which IC50 is on record?
Its IC50 is 1100 nM.

For `C#CCOc1c(C)cnc2c1CCCC2[S+]([O-])c1nc2cc(C)c(C)cc2[nH]1` (stereo not shown) [Test compound 6, 8-(5,6-Dimethyl-2-benzimidazolyl)sulfinyl-3-methyl-4-propargyloxy-5,6,7,8-tetrahydroquinoline], which IC50 is on record?
The IC50 was 460 nM.

With `Cc1cnc2c(c1)C([S+]([O-])c1nc3ccc(C(F)(F)F)cc3[nH]1)CCC2` (stereo not shown) [Test compound 39, 3-Methyl-5-(5-trifluoromethyl-2-benzimidazolyl)sulfinyl-5,6,7,8-tetrahydroquinoline] as the compound, how does the IC50 read?
Its IC50 is 2980 nM.

With `[O-][S+](c1nc2ccc(C(F)(F)F)cc2[nH]1)C1CCCc2cccnc21` (stereo not shown) [Test compound 28, 8-(5-Trifluoromethyl-2-benzimidazolyl)-sulfinyl-5,6,7,8-tetrahydroquinoline] as the compound, how does the IC50 read?
The IC50 was 1900 nM.

How did the IC50 turn out when `C#CCOc1c(C)cnc2c1CCCC2[S+]([O-])c1nc2ccccc2[nH]1` (stereo not shown) [Test compound 7, 8-(2-Benzimidazolyl)sulfinyl-3-methyl-4-propargyloxy-5,6,7,8-tetrahydroquinoline] was run?
Its IC50 is 1200 nM.

How did the IC50 turn out when `COc1c(C)cnc2c1CCCC2[S+]([O-])c1nc2cc(F)c(F)cc2[nH]1` (stereo not shown) [Test compound 43, 3-Methyl-4-methoxy-8-(5,6-difluoro-2-benzimidazolyl)sulfinyl-5,6,7,8-tetrahydroquinoline] was run?
The IC50 was 280 nM.

`COc1ccnc2c1CCCC2[S+]([O-])c1nc2ccc(F)cc2[nH]1` (stereo not shown) [Test compound 51, 4-Methoxy-8-(5-fluoro-2-benzimidazolyl)-sulfinyl-5,6,7,8-tetrahydroquinoline] was tested. Which IC50 did it give?
Its IC50 is 99 nM.

Which IC50 does the source give for `CC(=O)c1ccc2nc([S+]([O-])C3CCCc4cc(C)cnc43)[nH]c2c1` (stereo not shown) [Test compound 18, 3-Methyl-8-(5-acetyl-2-benzimidazolyl)-sulfinyl-5,6,7,8-tetrahydroquinoline] here?
The IC50 was 3200 nM.

With `Cc1cnc2c(c1)CCCC2[S+]([O-])c1nc2ccccc2[nH]1` (stereo not shown) [Test compound 15, 3-Methyl-8-(2-benzimidazolyl)sulfinyl-5,6,7,8-tetrahydroquinoline] as the compound, how does the IC50 read?
Its IC50 is 1800 nM.

How did the IC50 turn out when `CCOc1cc2[nH]c([S+]([O-])C3CCCc4cccnc43)nc2cc1F` (stereo not shown) [Test compound 37, 8-(5-Ethoxy-6-fluoro-2-benzimidazolyl)-sulfinyl-5,6,7,8-tetrahydroquinoline] was run?
Its IC50 is 3400 nM.

Which IC50 does the source give for `COc1c(C)cnc2c1CCCC2[S+]([O-])c1nc2ccc(Cl)cc2[nH]1` (stereo not shown) [Test compound 50, 3-Methyl-4-methoxy-8-(5-chloro-2-benzimidazolyl)sulfinyl-5,6,7,8-tetrahydroquinoline] here?
The IC50 was 180 nM.

For `CCOc1cc2[nH]c([S+]([O-])C3CCCc4c3ncc(C)c4OC)nc2cc1F` (stereo not shown) [Test compound 42, 3-Methyl-4-methoxy-8-(5-ethoxy-6-fluoro-2-benzimidazolyl)sulfinyl-5,6,7,8-tetrahydroquinoline], which IC50 is on record?
Its IC50 is 240 nM.

`C=CCOc1c(C)cnc2c1CCCC2[S+]([O-])c1nc2ccccc2[nH]1` (stereo not shown) [Test compound 1, 4-Allyloxy-8-(2-benzimidazolyl)sulfinyl-3-methyl-5,6,7,8-tetrahydroquinoline] was tested. Which IC50 did it give?
Its IC50 is 740 nM.

Which IC50 does the source give for `Cc1cnc2c(c1)CCCC2[S+]([O-])c1nc2ccc(F)cc2[nH]1` (stereo not shown) [Test compound 40, 3-Methyl-8-(5-fluoro-2-benzimidazolyl)-sulfinyl-5,6,7,8-tetrahydroquinoline] here?
Its IC50 is 1900 nM.

With `COc1cc2nc([S+]([O-])C3CCCc4cccnc43)[nH]c2cc1OC` (stereo not shown) [Test compound 30, 8-(5,6-Dimethoxy-2-benzimidazolyl)sulfinyl-5,6,7,8-tetrahydroquinoline] as the compound, how does the IC50 read?
The IC50 was 930 nM.

`COc1ccc2nc([S+]([O-])C3CCCc4c3ncc(C)c4OC)[nH]c2c1` (stereo not shown) [Test compound 49, 3-Methyl-4-methoxy-8-(5-methoxy-2-benzimidazolyl)sulfinyl-5,6,7,8-tetrahydroquinoline] was tested. Which IC50 did it give?
Its IC50 is 280 nM.

Which IC50 does the source give for `O=[N+]([O-])c1ccc2nc([S+]([O-])C3CCCc4cccnc43)[nH]c2c1` (stereo not shown) [Test compound 31, 8-(5-Nitro-2-benzimidazolyl)sulfinyl-5,6,7,8-tetrahydroquinoline] here?
Its IC50 is 2900 nM.

For `COc1ccc2nc([S+]([O-])C3CCCc4ccc(O)nc43)[nH]c2c1` (stereo not shown) [Test compound 29, 2-Hydroxy-8-(5-methoxy-2-benzimidazolyl)-sulfinyl-5,6,7,8-tetrahydroquinoline], which IC50 is on record?
Its IC50 is 2300 nM.

How did the IC50 turn out when `COc1c(C)cnc(C[S+]([O-])c2nc3cnccc3[nH]2)c1C` (stereo not shown) [Test compound 46, 2-[(3,5-Dimethyl-4-methoxy-2-pyridyl)-methylsulfinyl]imidazo[4,5-c]pyridine] was run?
Its IC50 is 29200 nM.

For `C=CCOc1c(C)cnc2c1CCCC2[S+]([O-])c1nc2ccc(F)cc2[nH]1` (stereo not shown) [Test compound 11, 4-Allyloxy-8-(5-fluoro-2-benzimidazolyl)-sulfinyl-3-methyl-5,6,7,8-tetrahydroquinoline], which IC50 is on record?
The IC50 was 730 nM.

`COc1ccc2nc([S+]([O-])C3CCCc4ccc(Cl)nc43)[nH]c2c1` (stereo not shown) [Test compound 21, 2-Chloro-8-(5-methoxy-2-benzimidazolyl)-sulfinyl-5,6,7,8-tetrahydroquinoline] was tested. Which IC50 did it give?
The IC50 was 2700 nM.

Which IC50 does the source give for `COCCOc1c(C)cnc2c1CCCC2[S+]([O-])c1nc2ccc(F)cc2[nH]1` (stereo not shown) [Test compound 10, 8-(5-Fluoro-2-benzimidazolyl)sulfinyl-4-(2-methoxyethoxy)-3-methyl-5,6,7,8-tetrahydroquinoline] here?
Its IC50 is 870 nM.

For `Cc1cccc2nc([S+]([O-])C3CCCc4cccnc43)[nH]c12` (stereo not shown) [Test compound 33, 8-(4-Methyl-2-benzimidazolyl)sulfinyl-5,6,7,8-tetrahydroquinoline], which IC50 is on record?
The IC50 was 2600 nM.
